According to ChEMBL document CHEMBL6127087 (Eur J Med Chem, 2024):
Active and inactive are the calls of the source. No cut-off for these calls is given here.

Tests used:
P2Y purinoceptor 6 = P2Y purinoceptor 6 (Homo sapiens, UniProt Q15077); assay: Antagonist activity at human P2Y6R expressed in CHO cells assessed as inhibition of UDP sodium salt-induced Ca2+ level by FLIPR calcium 6 assay; format: functional, cell-based
[1] = Half-life in male Sprague-Dawley rat at 20 mg/kg, po measured after 24 hrs by LC-MS/MS analysis; format: ADME, organism-based; conditions: in vivo, po, 20 mg/kg, 24 h
[2] = AUC (0 to 24 hrs) in male Sprague-Dawley rat at 20 mg/kg, po measured after 24 hrs by LC-MS/MS analysis; format: ADME, organism-based; conditions: in vivo, po, 20 mg/kg, 24 h
[3] = Tmax in male Sprague-Dawley rat at 10 mg/kg, iv measured after 24 hrs by LC-MS/MS analysis; format: ADME, organism-based; conditions: in vivo, iv, 10 mg/kg, 24 h
[4] = Clearance in male Sprague-Dawley rat at 10 mg/kg, iv measured after 24 hrs by LC-MS/MS analysis; format: ADME, organism-based; conditions: in vivo
[5] = AUC (0 to 24 hrs) in male Sprague-Dawley rat at 10 mg/kg, iv measured after 24 hrs by LC-MS/MS analysis; format: ADME, organism-based; conditions: in vivo
[6] = Clearance in male Sprague-Dawley rat at 20 mg/kg, po measured after 24 hrs by LC-MS/MS analysis; format: ADME, organism-based; conditions: in vivo
[7] = Half-life in male Sprague-Dawley rat at 10 mg/kg, iv measured after 24 hrs by LC-MS/MS analysis; format: ADME, organism-based; conditions: in vivo, iv, 10 mg/kg, 24 h
[8] = Tmax in male Sprague-Dawley rat at 20 mg/kg, po measured after 24 hrs by LC-MS/MS analysis; format: ADME, organism-based; conditions: in vivo, po, 20 mg/kg, 24 h
[9] = Cmax in male Sprague-Dawley rat at 10 mg/kg, iv measured after 24 hrs by LC-MS/MS analysis; format: ADME, organism-based; conditions: in vivo, iv, 10 mg/kg, 24 h
[10] = Oral bioavailability in male Sprague-Dawley rat at 20 mg/kg measured after 24 hrs by LC-MS/MS analysis; format: ADME, organism-based; conditions: in vivo, po, 20 mg/kg, 24 h
[11] = Cmax in male Sprague-Dawley rat at 20 mg/kg, po measured after 24 hrs by LC-MS/MS analysis; format: ADME, organism-based; conditions: in vivo, po, 20 mg/kg, 24 h
P2Y purinoceptor 4 = P2Y purinoceptor 4 (Homo sapiens, UniProt P51582); assay: Antagonist activity at human P2Y4R stably expressed in HEK293 cells assessed as inhibition of UTP-induced IP3 accumulation preincubated with compound for 30 mins followed by UTP addition by ELISA
Sequence of P2Y purinoceptor 4 (P51582 whole entry): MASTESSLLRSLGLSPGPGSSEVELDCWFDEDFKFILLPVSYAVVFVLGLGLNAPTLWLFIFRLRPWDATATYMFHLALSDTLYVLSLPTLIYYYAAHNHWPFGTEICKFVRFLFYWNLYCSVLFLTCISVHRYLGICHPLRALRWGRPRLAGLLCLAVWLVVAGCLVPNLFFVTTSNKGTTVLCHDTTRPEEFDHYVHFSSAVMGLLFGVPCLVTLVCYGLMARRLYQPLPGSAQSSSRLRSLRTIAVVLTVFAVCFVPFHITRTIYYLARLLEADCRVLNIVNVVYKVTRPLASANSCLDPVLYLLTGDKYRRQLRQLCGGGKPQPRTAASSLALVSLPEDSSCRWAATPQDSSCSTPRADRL

Mus musculus [12] = assay: Anti-inflammatory activity in LPS-induced male C57BL/6 mouse model of acute […] injury assessed as reduction in infiltration of immune cells by measuring decrease in lymphocytes count at 2 mg/kg, IG preadministered with compound for 7 days followed by LPS administration and measured after 24 hrs; format: functional, organism-based; conditions: time 8.0 day
Mus musculus [13] = assay: Anti-inflammatory activity in LPS-induced male C57BL/6 mouse model of acute […] injury assessed as intact appearance of alveolar structure in lung at 2 mg/kg, IG preadministered with compound for 7 days followed by LPS administration and measured after 24 hrs by H and E staining based histopathological analysis; format: functional, organism-based; conditions: time 8.0 day
Mus musculus [14] = assay: Anti-inflammatory activity in LPS-induced male C57BL/6 mouse model of acute […] injury assessed as reduction in interstitial edema in lung at 2 mg/kg, IG preadministered with compound for 7 days followed by LPS administration and measured after 24 hrs by H and E staining based histopathological analysis; format: functional, organism-based; conditions: time 8.0 day
Mus musculus [15] = assay: Anti-inflammatory activity in LPS-induced male C57BL/6 mouse model of acute […] injury assessed as absence of lesion in lung parenchyma at 2 mg/kg, IG preadministered with compound for 7 days followed by LPS administration and measured after 24 hrs by H and E staining based histopathological analysis; format: functional, organism-based; conditions: time 8.0 day
Mus musculus [16] = assay: Anti-inflammatory activity in LPS-induced male C57BL/6 mouse model of acute […] injury assessed as reduction in infiltration of immune cells by measuring decrease in neutrophil count at 2 mg/kg, IG preadministered with compound for 7 days followed by LPS administration and measured after 24 hrs; format: functional, organism-based; conditions: time 8.0 day
Mus musculus [17] = assay: Anti-inflammatory activity in LPS-induced male C57BL/6 mouse model of acute […] injury assessed as reduction in TNF-alpha level in BALF at 2 mg/kg, IG preadministered with compound for 7 days followed by LPS administration and measured after 24 hrs by ELISA; format: functional, organism-based; conditions: time 8.0 day
Mus musculus [18] = assay: Anti-inflammatory activity in LPS-induced male C57BL/6 mouse model of acute […] injury assessed as reduction in infiltration of immune cells by measuring decrease in monocytes count at 2 mg/kg, IG preadministered with compound for 7 days followed by LPS administration and measured after 24 hrs; format: functional, organism-based; conditions: time 8.0 day
Mus musculus [19] = assay: Anti-inflammatory activity in LPS-induced male C57BL/6 mouse model of acute […] injury assessed as reduction in IL-1beta level in BALF at 2 mg/kg, IG preadministered with compound for 7 days followed by LPS administration and measured after 24 hrs by ELISA; format: functional, organism-based; conditions: time 8.0 day
Mus musculus [20] = assay: Anti-inflammatory activity in LPS-induced male C57BL/6 mouse model of acute […] injury assessed as reduction in infiltration of immune cells by measuring decrease in WBC count at 2 mg/kg, IG preadministered with compound for 7 days followed by LPS administration and measured after 24 hrs; format: functional, organism-based; conditions: time 8.0 day
Mus musculus [21] = assay: Anti-inflammatory activity in LPS-induced male C57BL/6 mouse model of acute […] injury assessed as reduction in tissue destruction in lung at 2 mg/kg, IG preadministered with compound for 7 days followed by LPS administration and measured after 24 hrs by H and E staining based histopathological analysis; format: functional, organism-based; conditions: time 8.0 day
Mus musculus [22] = assay: Anti-inflammatory activity in LPS-induced male C57BL/6 mouse model of acute […] injury assessed as reduction in inflammatory infiltration in lung at 2 mg/kg, IG preadministered with compound for 7 days followed by LPS administration and measured after 24 hrs by H and E staining based histopathological analysis; format: functional, organism-based; conditions: time 8.0 day
Mus musculus [23] = assay: Anti-inflammatory activity in LPS-induced male C57BL/6 mouse model of acute […] injury assessed as reduction in hyperemia of pulmonary alveolar septa in lung at 2 mg/kg, IG preadministered with compound for 7 days followed by LPS administration and measured after 24 hrs by H and E staining based histopathological analysis; format: functional, organism-based; conditions: time 8.0 day
Mus musculus [24] = assay: Anti-inflammatory activity in LPS-induced male C57BL/6 mouse model of acute […] injury assessed as reduction in IL-6 level in BALF at 2 mg/kg, IG preadministered with compound for 7 days followed by LPS administration and measured after 24 hrs by ELISA; format: functional, organism-based; conditions: time 8.0 day
Mus musculus [25] = assay: Anti-inflammatory activity in LPS-induced male C57BL/6 mouse model of acute […] injury assessed as reduction in alveolar septa thickening in lung at 2 mg/kg, IG preadministered with compound for 7 days followed by LPS administration and measured after 24 hrs by H and E staining based histopathological analysis; format: functional, organism-based; conditions: time 8.0 day
P2Y purinoceptor 12 = P2Y purinoceptor 12 (Homo sapiens, UniProt Q9H244); assay: Antagonist activity at human P2Y12R stably expressed in HEK293 cells assessed as inhibition of MeSADP-induced cAMP accumulation preincubated with compound for 30 mins followed by MeSADP addition by cAMP-GloTM assay; format: functional, cell-based
Sequence of P2Y purinoceptor 12 (Q9H244 whole entry): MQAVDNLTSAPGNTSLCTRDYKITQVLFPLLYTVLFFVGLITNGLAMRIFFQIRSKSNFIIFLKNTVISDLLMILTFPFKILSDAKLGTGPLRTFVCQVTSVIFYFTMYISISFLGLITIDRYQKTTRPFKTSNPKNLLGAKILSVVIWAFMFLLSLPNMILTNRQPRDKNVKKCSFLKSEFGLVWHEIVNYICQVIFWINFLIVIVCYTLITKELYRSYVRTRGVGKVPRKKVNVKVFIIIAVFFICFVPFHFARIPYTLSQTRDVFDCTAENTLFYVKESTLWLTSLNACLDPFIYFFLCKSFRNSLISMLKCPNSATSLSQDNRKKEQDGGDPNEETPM

Sequence of P2Y purinoceptor 6 (Q15077 whole entry): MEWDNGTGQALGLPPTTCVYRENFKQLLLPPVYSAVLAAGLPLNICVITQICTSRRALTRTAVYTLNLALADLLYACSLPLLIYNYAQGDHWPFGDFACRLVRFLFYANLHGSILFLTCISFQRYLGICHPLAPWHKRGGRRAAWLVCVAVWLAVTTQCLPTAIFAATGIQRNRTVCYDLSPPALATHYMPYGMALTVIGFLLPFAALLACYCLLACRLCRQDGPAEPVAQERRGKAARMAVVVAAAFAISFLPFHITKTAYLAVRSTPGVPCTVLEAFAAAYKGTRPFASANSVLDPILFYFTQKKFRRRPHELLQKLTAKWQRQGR

SMILES | IC50 (P2Y purinoceptor 6) | other results
Cc1cccc2cc(C3CC(c4ccc[nH]4)=NN3C(=O)CCC(=O)O)c(Cl)nc12 (stereo unspecified) | 0.0537 µM | –
COc1ccc(C2=NN(C(=O)CCC(=O)O)C(c3cc4ccc(C)cc4nc3Cl)C2)cc1 (stereo unspecified) | 0.106 µM | –
Cc1ccc2cc(C3CC(c4cccs4)=NN3C(=O)CCC(=O)O)c(Cl)nc2c1 (stereo unspecified) | 0.324 µM | –
Cc1ccc2cc(C3CC(c4ccc(-c5ccccc5)cc4)=NN3C(=O)CCC(=O)O)c(Cl)nc2c1 (stereo unspecified) | 0.168 µM | t1/2 [1]: 12 min; AUC [2]: 2356 ng·h/mL; Tmax [3]: 9 min; clearance [4]: 13.5 mL/min/kg; AUC [5]: 1854 ng·h/mL; CL/F [6]: 20.1 mL/min/kg; t1/2 [7]: 6 min; Tmax [8]: 14 min; Cmax [9]: 864 ng/mL; F [10]: 16%; Cmax [11]: 1211 ng/mL
Cc1cccc(C2=NN(C(=O)CCC(=O)O)C(c3cc4ccc(C)cc4nc3Cl)C2)c1 (stereo unspecified) | 0.125 µM | –
Cc1ccc2cc(C3CC(c4ccccc4F)=NN3C(=O)CCC(=O)O)c(Cl)nc2c1 (stereo unspecified) | > 0.5 µM | –
O=C(O)CCC(=O)N1N=C(c2ccco2)CC1c1cnc2ccccc2c1 (stereo unspecified) | 0.0267 µM | –
O=C(O)CCC(=O)N1N=C(c2ccco2)CC1c1cc2ccc(F)cc2nc1Cl (stereo unspecified) | 0.21 µM | –
O=C(O)CCCC(=O)N1N=C(c2ccc[nH]2)CC1c1cnc2ccccc2c1 (stereo unspecified) | 0.2 µM | –
O=C(C1CC1)N1CCc2cc(Br)c(S(=O)(=O)Nc3ccc(Cl)c(C(F)(F)F)c3)cc21 | – | IC50 (P2Y purinoceptor 4): 12.5 µM
Cc1ccc2cc(C3CC(c4c[nH]c5ccccc45)=NN3C(=O)CCC(=O)O)c(Cl)nc2c1 (stereo unspecified) | 0.148 µM | –
Cc1cccc2cc(C3CC(c4ccco4)=NN3C(=O)CCC(=O)O)c(Cl)nc12 (stereo unspecified) | 0.0346 µM | –
Cc1ccc2cc(C3CC(c4ccc(O)cc4)=NN3C(=O)CCC(=O)O)c(Cl)nc2c1 (stereo unspecified) | > 0.5 µM | –
O=C(O)CCC(=O)N1N=C(c2ccc[nH]2)CC1c1cc2ccc(F)cc2nc1Cl (stereo unspecified) | 0.421 µM | –
O=C(O)CCC(=O)N1N=C(c2ccccc2)CC1c1cc2ccc(F)cc2nc1Cl (stereo unspecified) | 0.187 µM | –
Cc1ccc2cc(C3CC(c4ccco4)=NN3C(=O)CCCC(=O)O)c(Cl)nc2c1 (stereo unspecified) | > 0.5 µM | –
Cc1ccc2nc(Cl)c(C3CC(c4ccco4)=NN3C(=O)CCC(=O)O)cc2c1 (stereo unspecified) | 0.0528 µM | –
Cc1ccc2cc(C3CC(c4cccnc4)=NN3C(=O)CCC(=O)O)c(Cl)nc2c1 (stereo unspecified) | 0.279 µM | –
COc1cccc(C2=NN(C(=O)CCC(=O)O)C(c3cc4ccc(C)cc4nc3Cl)C2)c1 (stereo unspecified) | 0.0775 µM | –

SMILES | IC50 (P2Y purinoceptor 6) | other results
Cc1ccc2cc(C3CC(c4cccc(C(F)(F)F)c4)=NN3C(=O)CCC(=O)O)c(Cl)nc2c1 (stereo unspecified) | > 0.5 µM | –
O=C(O)CCC(=O)N1N=C(c2ccc[nH]2)CC1c1cc2ccccc2nc1Cl (stereo unspecified) | 0.249 µM | –
Cc1ccc(C2=NN(C(=O)CCC(=O)O)C(c3cc4ccc(C)cc4nc3Cl)C2)cc1 (stereo unspecified) | 0.0846 µM | –
Cc1ccc2cc(C3CC(c4ccc[nH]4)=NN3C(=O)CCC(=O)O)c(Cl)nc2c1 (stereo unspecified) | 0.0296 µM | –
Cc1ccc2cc(C3CC(c4ccco4)=NN3C(=O)C=CC(=O)O)c(Cl)nc2c1 (stereo unspecified) | 0.291 µM | –
Cc1cccc2cc(C3CC(c4ccccc4)=NN3C(=O)CCC(=O)O)c(Cl)nc12 (stereo unspecified) | 0.0415 µM | –
Cc1ccc2nc(Cl)c(C3CC(c4ccc[nH]4)=NN3C(=O)CCC(=O)O)cc2c1 (stereo unspecified) | 0.0668 µM | –
C[C@@H]1C[C@H]2[C@@H]3CCC4=CC(=O)C=C[C@]4(C)[C@@]3(F)[C@@H](O)C[C@]2(C)[C@@]1(O)C(=O)CO | – | Activity (Mus musculus [12]): Active; Activity (Mus musculus [13]): Active; Activity (Mus musculus [14]): Active; Activity (Mus musculus [15]): Active; Activity (Mus musculus [16]): Active; Activity (Mus musculus [17]): Active; Activity (Mus musculus [18]): Active; Activity (Mus musculus [19]): Active; Activity (Mus musculus [20]): Active; Activity (Mus musculus [21]): Active; Activity (Mus musculus [22]): Active; Activity (Mus musculus [23]): Active; Activity (Mus musculus [24]): Active; Activity (Mus musculus [25]): Active
Cc1ccc2cc(C3CC(c4ccc(C(C)(C)C)cc4)=NN3C(=O)CCC(=O)O)c(Cl)nc2c1 (stereo unspecified) | 0.0694 µM | –
O=C(O)/C=C\C(=O)N1N=C(c2ccc[nH]2)CC1c1cnc2ccccc2c1 (stereo unspecified) | 0.386 µM | –
Cc1ccc2cc(C3CC(c4ccccc4)=NN3C(=O)CCC(=O)O)c(Cl)nc2c1 (stereo unspecified) | 0.0546 µM | –
Cc1ccc2nc(Cl)c(C3CC(c4ccccc4)=NN3C(=O)CCC(=O)O)cc2c1 (stereo unspecified) | 0.106 µM | –
O=C(O)CCC(=O)N1N=C(c2ccccc2)CC1c1cc2ccccc2nc1Cl (stereo unspecified) | 0.274 µM | –
Cc1ccc2cc(C3CC(c4ccco4)=NN3C(=O)CCC(=O)O)c(Cl)nc2c1 (stereo unspecified) | 0.0265 µM | –
O=C(O)CCC(=O)N1N=C(c2ccccc2)CC1c1cnc2ccccc2c1 (stereo unspecified) | 0.0398 µM | –
Cc1ccc2cc(C3CC(c4ccc5ccccc5c4)=NN3C(=O)CCC(=O)O)c(Cl)nc2c1 (stereo unspecified) | > 0.5 µM | –
CCCSc1nc(N[C@@H]2C[C@H]2c2ccc(F)c(F)c2)c2nnn([C@@H]3C[C@H](OCCO)[C@@H](O)[C@H]3O)c2n1 [TICAGRELOR] | – | IC50 (P2Y purinoceptor 12): 1.22 µM
O=C(O)CCC(=O)N1N=C(c2ccco2)CC1c1cc2ccccc2nc1Cl (stereo unspecified) | 0.186 µM | –
